Measured values: patent US7572773B2, “Single dose fast dissolving azithromycin” (Pliva Hrvatska D.O.O., priority 2003, dated 2009)

Tests used:
[1] = Analysis of adverse events observed during human PK study; type: in vivo
[2] = Comparative dissolution profiles of azithromycin polymorph Ik vs. dihydrate, USP Method 2; type: physicochemical; details: for percent dissolved: pH 6 (37° C.), USP Method 2
Protocol: In order to compare the behavior in vitro of the fast dissolving azithromycin polymorph (Formula Ik) with the commercial azithromycin dihydrate product, dissolution profiles have been determined at pH 6.0 at 37° C. The comparative dissolution profiles were determined by USP Method 2, PharmaTest Dissolution Tester, PTW SII; the content of dissolved azithromycin was measured by HPLC.

[3] = clinical; details: human, in vivo, 500 mg
Protocol: (§1) The test was an open, mono-centric, fasted human study. 6 human subjects were studied using a full cross-over experimental design experiment. […] This crossover experiment was repeated a total of three times by intubations of the test subjects: the first involved GI site-specific administration to the stomach, the second involved GI site-specific administration to the duodenum, and the third involved GI site-specific administration to the jejunum.
(§2) The kinetics parameters were determined model-independently and the parameters were determined directly from the measured concentrations.

[4] = Human pharmacokinetic study, plasma concentration after GI site-specific administration of aqueous suspension; details: 500 mg aqueous suspension; for ΔIa/dihydrate, AUC / ΔIa/dihydrate, Cmax: Ia relative to dihydrate
Protocol: as §1, §2

[5] = Comparative dissolution profiles of azithromycin monohydrate Ia vs. dihydrate, USP Method 2; type: physicochemical; details: pH 1.2, 3.0, 6.0 and 6.8, 37° C., 900 ml buffer, 100 rpm, FIGS. 1-4
Protocol: In order to compare the behavior in vitro of the fast dissolving azithromycin monohydrate (Formula Ia) with the commercial azithromycin dihydrate product, dissolution profiles have been determined at pH 1.2, pH 3.0, pH 6.0, and pH 6.8, at 37° C. The comparative dissolution profiles were determined in 900 ml buffer solution, at 100 rpm, by USP Method 2, PharmaTest Dissolution Tester, PTW SII; the content of dissolved azithromycin was measured by HPLC. The data thus obtained are plotted in FIGS. 1-4, respectively.

[6] = In vivo rat pharmacokinetic study, plasma and whole blood concentration time curves after p.o. administration; details: rats, 50 mg/kg suspension; for ΔIa/dihydrate, Cmax / ΔIa/dihydrate, AUC(0-12): Ia relative to dihydrate; for ΔIa/dihydrate, AUC(0-12): monohydrate, 50 mg/kg
From the text: 32 animals (Wistar Han rats, fasted) were studied using a cross-over experimental design experiment. A non-compartmental analysis was used to determine the concentrations of the respective materials in whole blood and plasma as a function of time.

[7] = site-specific administration to duodenum
[8] = site-specific administration to jejunum
[9] = site-specific administration to stomach

## CC[C@H]1OC(=O)[C@H](C)[C@@H](O[C@H]2C[C@@](C)(OC)[C@@H](O)[C@H](C)O2)[C@H](C)[C@@H](O[C@@H]2O[C@H](C)C[C@H](N(C)C)[C@H]2O)[C@](C)(O)C[C@@H](C)CN(C)[C@H](C)[C@@H](O)[C@]1(C)O [Azithromycin Dihydrate, 9-deoxo-9a-aza-9a-methyl-9a-homoerythromycin A dihydrate]
[1]; human, in vivo
  adverse events with a possible causal relationship: 3 events
[2]; 5 minutes, listed as Commercial 9-deoxo-9a-aza-9a-methyl-9a-homoerythromycin A Dihydrate, dihydrate
  percent dissolved: 14.5%
[2]; 10 minutes, listed as Commercial 9-deoxo-9a-aza-9a-methyl-9a-homoerythromycin A Dihydrate, dihydrate
  percent dissolved: 27.3%
[2]; 20 minutes, listed as Commercial 9-deoxo-9a-aza-9a-methyl-9a-homoerythromycin A Dihydrate, dihydrate
  percent dissolved: 44.2%
[2]; 45 minutes, listed as Commercial 9-deoxo-9a-aza-9a-methyl-9a-homoerythromycin A Dihydrate, dihydrate
  percent dissolved: 69.1%
[3]
  Cmax: 94 ng/mL

## CC[C@H]1OC(=O)[C@H](C)[C@@H](O[C@H]2C[C@@](C)(OC)[C@@H](O)[C@H](C)O2)[C@H](C)[C@@H](O[C@@H]2O[C@H](C)C[C@H](N(C)C)[C@H]2O)[C@](C)(O)C[C@@H](C)CN(C)[C@H](C)[C@@H](O)[C@]1(C)O [Pseudopolymorph Ik, 9-deoxo-9a-aza-9a-methyl-9a-homoerythromycin A Pseudopolymorph Ik]
[2]; 5 minutes
  percent dissolved: 99.8%
[2]; 10 minutes
  percent dissolved: 99.9%
[2]; 20 minutes
  percent dissolved: 97.1%
[2]; 45 minutes
  percent dissolved: 97.6%
[2]; pH 6.0, 37° C.
  dissolution profile compared to commercially available azithromycin dihydrate: dissolves faster

## CC[C@H]1OC(=O)[C@H](C)[C@@H](O[C@H]2C[C@@](C)(OC)[C@@H](O)[C@H](C)O2)[C@H](C)[C@@H](O[C@@H]2O[C@H](C)C[C@H](N(C)C)[C@H]2O)[C@](C)(O)C[C@@H](C)CN(C)[C@H](C)[C@@H](O)[C@]1(C)O.O [azithromycin monohydrate]
[1]; human PK study, single dose administration of a comparable amount
  incidence of adverse effects compared to azithromycin dihydrate product: lower incidence of adverse effects
[4]; duodenum
  ΔIa/dihydrate, AUC: −13%
  ΔIa/dihydrate, Cmax: +10%
[4]; jejunum
  ΔIa/dihydrate, AUC: +98%
  ΔIa/dihydrate, Cmax: +60%
[4]; [7]
  AUC: 719 nghr/ml
  Cmax: 129 ng/mL
[4]; [8]
  AUC: 836 nghr/ml
  Cmax: 99 ng/mL
[4]; [9]
  AUC: 813 nghr/ml
  Cmax: 143 ng/mL
[4]; stomach
  ΔIa/dihydrate, AUC: +19%
  ΔIa/dihydrate, Cmax: +52%
[5]
  dissolution profile compared to commercially available azithromycin dihydrate: dissolves faster
[6]; plasma
  AUC(0-12): 5148 nghr/ml
  Cmax: 1006 ng/mL
  ΔIa/dihydrate, Cmax: +37%
  ΔIa/dihydrate, AUC(0-12): +29%
[6]; plasma, listed as azithromycin monohydrate Ia
  ΔIa/dihydrate, AUC(0-12): ~29%
[6]; whole blood
  AUC(0-12): 21204 nghr/ml
  Cmax: 5061 ng/mL
  ΔIa/dihydrate, Cmax: +97%
  ΔIa/dihydrate, AUC(0-12): +27%
[6]; whole blood, listed as azithromycin monohydrate Ia
  ΔIa/dihydrate, AUC(0-12): approximately 27%
